Data: ChEMBL document CHEMBL5154887, “Novel CRBN-Recruiting Proteolysis-Targeting Chimeras as Degraders of Stimulator of Interferon Genes with In Vivo Anti-Inflammatory Efficacy” (J Med Chem, 2022)
The source made the active and inactive calls. The calls are words filed in the database; no cut-off is given here.

Key:
[1] = MRT (0 to infinity) in Sprague-Dawley rat at 2 mg/kg, iv measured upto 48 hrs by UPLC-triple quadrupole MS analysis; type: ADME, organism-based; settings: in vivo
[2] = AUC (0 to infinity) in Sprague-Dawley rat at 2 mg/kg, iv measured upto 48 hrs by UPLC-triple quadrupole MS analysis; type: ADME, organism-based; design: time < 48 hrs, dose 2 mg/kg, route iv; settings: in vivo
[3] = In vivo inhibition of STING signalling pathway in cisplatin-induced acute kidney injury in C57BL/6J mouse model assessed as reduction in STING protein expression in kidney at 30 mg/kg, ip pretreated for 1 hr followed by cisplatin administration and measured after 72 hrs by Western blot analysis (Rvb= 375%); type: functional; design: scale not given: the % may be the effect or the level left; settings: time 73 hrs
[4] = molecular target: T1, Protein cereblon/Stimulator of interferon genes protein (Homo sapiens, UniProt Q96SW2+Q86WV6); assay: Protac activity at CRBN/STING in human THP-1 cells assessed as increase in STING degradation at 10 uM incubated for 48 hrs by Western blot analysis relative to control; type: cell-based
Target sequence in this assay (Q86WV6 whole entry, looked up): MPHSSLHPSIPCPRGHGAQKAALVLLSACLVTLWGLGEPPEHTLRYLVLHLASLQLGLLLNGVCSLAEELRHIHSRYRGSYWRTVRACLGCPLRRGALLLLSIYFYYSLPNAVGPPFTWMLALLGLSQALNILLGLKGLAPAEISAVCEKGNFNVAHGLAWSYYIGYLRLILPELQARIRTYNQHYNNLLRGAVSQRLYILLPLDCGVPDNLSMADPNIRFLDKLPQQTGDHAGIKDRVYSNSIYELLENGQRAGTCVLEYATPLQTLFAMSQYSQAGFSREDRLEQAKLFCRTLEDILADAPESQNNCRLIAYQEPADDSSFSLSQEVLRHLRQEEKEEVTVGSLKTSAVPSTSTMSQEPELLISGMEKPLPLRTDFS
Target sequence in this assay (Q96SW2 whole entry, looked up): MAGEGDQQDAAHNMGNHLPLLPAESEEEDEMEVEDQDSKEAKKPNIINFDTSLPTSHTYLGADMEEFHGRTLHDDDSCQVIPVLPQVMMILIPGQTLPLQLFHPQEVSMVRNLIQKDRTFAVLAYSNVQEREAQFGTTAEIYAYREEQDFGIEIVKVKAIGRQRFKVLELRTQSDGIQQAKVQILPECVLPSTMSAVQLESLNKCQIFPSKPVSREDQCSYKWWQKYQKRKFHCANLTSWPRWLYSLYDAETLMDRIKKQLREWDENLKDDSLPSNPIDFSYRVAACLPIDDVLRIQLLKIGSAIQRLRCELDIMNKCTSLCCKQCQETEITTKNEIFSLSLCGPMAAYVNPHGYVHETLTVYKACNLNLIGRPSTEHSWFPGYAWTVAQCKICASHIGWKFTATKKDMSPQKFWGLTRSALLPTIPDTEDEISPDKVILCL

[5] = molecular target: T1, Protein cereblon/Stimulator of interferon genes protein; assay: Protac activity at CRBN/STING in human THP-1 cells assessed as increase in STING degradation incubated for 48 hrs by Western blot analysis; type: cell-based
Target sequence in this assay (Q96SW2 whole entry): as the sequence (Q96SW2 whole entry, looked up) above
Target sequence in this assay (Q86WV6 whole entry): as the sequence (Q86WV6 whole entry, looked up) above

[6] = test system: THP-1; assay: Inhibition of cGAS-STING signalling pathway in human THP-1 cells assessed as downregulation of cGAMP-triggered CXCL10 expression preincubated for 2 hrs followed by cGAMP stimulation and measured after 24 hrs by ELISA; type: cell-based; settings: dose 2.5-20 µM, time 26.0 hrs, DDE = dose-dependent effect
[7] = molecular target: Stimulator of interferon genes protein (Homo sapiens) (UniProt Q86WV6); assay: Inhibition of STING pathway in human THP-1 cells assessed as inhibition of cGAMP-triggered pTBK1 expression preincubated for 2 hrs followed by cGAMP stimulation and measured after 24 hrs by Western blot analysis; type: cell-based; settings: dose 0-20 µM, time 26.0 hrs, DDE = dose-dependent effect
[8] = test system: L02; assay: Cytotoxicity against human L02 cells assessed as reduction in cell viability at <10 uM by MTT assay; type: toxicity, cell-based; settings: l02, 10 µM
[9] = Cytotoxicity against HEK293-A cells assessed as reduction in cell viability at <10 uM by MTT assay; type: toxicity, cell-based; settings: human
[10] = Cytotoxicity against mouse C17.2 cells assessed as reduction in cell viability at <10 uM by MTT assay; type: toxicity, cell-based; settings: c17.2, 10 µM
[11] = Toxicity in C57BL/6J mouse model of cisplatin-induced acute kidney injury assessed as survival rate at 60 mg/kg, ip pretreated for 1 hr followed by cisplatin administration and measured after 72 hrs relative to control; type: organism-based; settings: in vivo, 73 h
[12] = Toxicity in C57BL/6J mouse assessed as body weight loss at 30 mg/kg, ip measured after 4 days relative to control; type: organism-based; settings: in vivo, 96 h, time 4 day
[13] = Toxicity in C57BL/6J mouse assessed as body weight loss at 60 mg/kg, ip measured after 4 days relative to control; type: organism-based; settings: in vivo, 96 h, time 4 day
[14] = Renal toxicity in C57BL/6J mouse assessed as reduction in BUN level at 60 mg/kg, ip (Rvb= 8.9 mmol/L); type: organism-based; settings: in vivo
[15] = Renal toxicity in C57BL/6J mouse assessed as reduction in creatinine level at 30 mg/kg, ip (Rvb= 8.5 umol/L); type: organism-based; settings: in vivo
[16] = test system: Mus musculus; assay: In vivo inhibition of STING signalling pathway in ip dosed cisplatin-induced acute kidney injury in C57BL/6J mouse model assessed as reduction in IFN-beta expression in blood of mouse eyeballs pretreated for 1 hr followed by cisplatin administration and measured after 72 hrs by ELISA; type: functional, organism-based; settings: time 73.0 hrs, DDE = dose-dependent effect
[17] = test system: Mus musculus; assay: In vivo inhibition of STING signalling pathway in ip dosed cisplatin-induced acute kidney injury in C57BL/6J mouse model assessed as reduction in IL-6 expression in blood of mouse eyeballs pretreated for 1 hr followed by cisplatin administration and measured after 72 hrs by ELISA; type: functional, organism-based; settings: time 73.0 hrs, DDE = dose-dependent effect
[18] = test system: Mus musculus; assay: Renal protective activity against cisplatin-induced acute kidney injury in C57BL/6J mouse model assessed as improvement in renal blood flow velocity at 60 mg/kg, ip by B-mode ultrasound scanner analysis; type: functional, organism-based
[19] = Toxicity in cisplatin-induced acute kidney injury in C57BL/6J mouse model assessed as marked inflammatory cell exudation in kidney at 30 to 60 mg/kg, ip pretreated for 1 hr followed by cisplatin administration and measured after 72 hrs by H and E staining based analysis; type: organism-based; settings: in vivo, 73 h, dose 30-60 mg/kg
[20] = Toxicity in cisplatin-induced acute kidney injury in C57BL/6J mouse model assessed as tubular epithelial edema in kidney at 30 to 60 mg/kg, ip pretreated for 1 hr followed by cisplatin administration and measured after 72 hrs by H and E staining based analysis; type: organism-based; settings: in vivo, 73 h, dose 30-60 mg/kg
[21] = Tmax in Sprague-Dawley rat at 2 mg/kg, iv measured upto 48 hrs by UPLC-triple quadrupole MS analysis; type: ADME, organism-based; settings: in vivo
[22] = Cmax in Sprague-Dawley rat at 2 mg/kg, iv measured upto 48 hrs by UPLC-triple quadrupole MS analysis; type: ADME, organism-based; design: dose 2 mg/kg, time < 48 hrs, route iv; settings: in vivo
[23] = MRT (0 to t) in Sprague-Dawley rat at 20 mg/kg, po measured upto 48 hrs by UPLC-triple quadrupole MS analysis; type: ADME, organism-based; settings: in vivo
[24] = MRT (0 to infinity) in Sprague-Dawley rat at 20 mg/kg, po measured upto 48 hrs by UPLC-triple quadrupole MS analysis; type: ADME, organism-based; settings: in vivo
[25] = Apparent volume of distribution in Sprague-Dawley rat at 20 mg/kg, po measured upto 48 hrs by UPLC-triple quadrupole MS analysis; type: ADME, organism-based; settings: in vivo
[26] = Cmax in Sprague-Dawley rat at 20 mg/kg, po measured upto 48 hrs by UPLC-triple quadrupole MS analysis; type: ADME, organism-based; design: time < 48 hrs, dose 20 mg/kg, route po; settings: in vivo
[27] = test system: Mus musculus; assay: Antiinflammatory activity against cisplatin-induced acute kidney injury in C57BL/6J mouse model assessed as reduction in ischemic symptoms at 30 mg/kg, ip pretreated for 1 hr followed by cisplatin administration and measured after 72 hrs relative to control; type: functional, organism-based; settings: time 73.0 hrs
[28] = Toxicity in cisplatin-induced acute kidney injury in C57BL/6J mouse model assessed as illegible tubular structure in kidney at 30 to 60 mg/kg, ip pretreated for 1 hr followed by cisplatin administration and measured after 72 hrs by H and E staining based analysis; type: organism-based; settings: in vivo, 73 h, dose 30-60 mg/kg

Sequence of Stimulator of interferon genes protein (Homo sapiens) (Q86WV6 whole entry): as the sequence (Q86WV6 whole entry, looked up) above

Question: For `O=C(/C=C/C(=O)Nc1ccc(NC(=O)c2ccc([N+](=O)[O-])o2)cc1)NCCCCCCNc1cccc2c1C(=O)N(C1CCC(=O)NC1=O)C2=O` (stereo not drawn), which MRT inf [1] is on record?
Answer: The MRT inf was 1.95 h.

Question: And the AUC(0-inf) [2]?
Answer: Its AUC(0-inf) is 259 ng·h/mL.

Question: And the Activity [3]?
Answer: The Activity was 150%.

Question: And the Activity [4]?
Answer: Its Activity is 76%.

Question: And the DC50 [5]?
Answer: Its DC50 is 3.2 µM.

Question: And the Activity [6]?
Answer: Its Activity is “Dde”.

Question: And the inhibition [7]?
Answer: The inhibition was “Dde”.

Question: And the Activity [8]?
Answer: Its Activity is “Non-Toxic”.

Question: And the Activity [9]?
Answer: Its Activity is “Non-Toxic”.

Question: What about the Activity [10] of the same compound?
Answer: The Activity was “Non-Toxic”.

Question: What about the Survival [11] of the same compound?
Answer: Its Survival is 100%.

Question: And the Activity [12]?
Answer: The Activity was 13%.

Question: What about the Activity [13] of the same compound?
Answer: Its Activity is 9%.

Question: What about the Activity [14] of the same compound?
Answer: Its Activity is 16.3 mmol/L.

Question: And the Activity [15]?
Answer: The Activity was 26.8 µmol/L.

Question: What about the inhibition [16] of the same compound?
Answer: The inhibition was “Dde”.

Question: What about the inhibition [17] of the same compound?
Answer: Its inhibition is “Dde”.

Question: What about the Activity [18] of the same compound?
Answer: The Activity was “Active”.

Question: What about the Activity [19] of the same compound?
Answer: Its Activity is “Non-Toxic”.

Question: What about the Activity [20] of the same compound?
Answer: Its Activity is “Non-Toxic”.

Question: And the Tmax [21]?
Answer: Its Tmax is 4.98 min.

Question: And the Cmax [22]?
Answer: Its Cmax is 318 ng/mL.

Question: What about the MRT last at 48 h [23] of the same compound?
Answer: The MRT last at 48 h was 7.6 h.

Question: What about the MRT inf [24] of the same compound?
Answer: The MRT inf was 11.7 h.

Question: And the Vz [25]?
Answer: The Vz was 4480.43 L/kg.

Question: And the Cmax [26]?
Answer: The Cmax was 8.37 ng/mL.

Question: And the Activity [27]?
Answer: Its Activity is “Active”.

Question: What about the Activity [28] of the same compound?
Answer: The Activity was “Non-Toxic”.
